Measured values from PMC5478473 (Nature chemical biology, 2017).

Target: T1, Tet(50) (unidentified prokaryotic organism, UniProt A0A059WYP6)
T1 sequence (A0A059WYP6 1-388): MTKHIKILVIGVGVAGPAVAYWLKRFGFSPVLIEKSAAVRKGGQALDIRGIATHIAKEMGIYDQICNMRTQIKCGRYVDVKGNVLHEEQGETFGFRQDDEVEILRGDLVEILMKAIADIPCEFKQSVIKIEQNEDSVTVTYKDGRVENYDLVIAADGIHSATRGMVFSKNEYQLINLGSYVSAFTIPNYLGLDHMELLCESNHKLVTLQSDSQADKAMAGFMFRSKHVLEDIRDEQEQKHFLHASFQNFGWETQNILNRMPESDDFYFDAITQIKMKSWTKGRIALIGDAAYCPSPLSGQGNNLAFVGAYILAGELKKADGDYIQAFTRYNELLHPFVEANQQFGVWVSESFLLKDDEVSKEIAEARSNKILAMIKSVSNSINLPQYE

Work on `CN(C)[C@@H]1C(O)=C(C(N)=O)C(=O)[C@@]2(O)C(O)=C3C(=O)c4c(O)ccc(Cl)c4[C@@](C)(O)[C@H]3C[C@@H]12` [chlortetracycline] yielded a Km of 6.3 µM.
